Laboratory results: US10141017B2, “Lubricant for magnetic recording medium, and magnetic recording medium” (Dexerials Corporation, priority 2015, dated 2018)
Like-named read-outs stand apart in the source and are kept apart here.

Tests used:
[1] = Measurement of thermal decomposition temperature (TG-DTA, 5% weight reduction); type: physicochemical
Method: As measuring conditions, the heating speed was 10° C./min and the air flow rate was 200 mL/min.

[2] = Solubility to fluorine-based solvent; details: 25° C.
Method: Various fluorine-based solvents were each added in a manner that a concentration was to be 1% by mass, and the resultant was stirred with maintaining the temperature at 25° C. The solubility was evaluated based on the following evaluation criteria.
• 1: The ionic liquid was dissolved in the fluorine-based solvent, and no precipitation was generated even after leaving the solution to stand. • 2: The ionic liquid was insoluble to the fluorine-based solvent, or was partially dissolved but precipitation was generated when the solution was left to stand. <<Friction Properties>> —Production of Lubricant-Coated Hard Disk—

[3] = Comprehensive evaluation (thermal decomposition temperature, friction properties, solubility)
[4] = TG-DTA, heating speed 10° C./min, air flow 200 mL/min

Row | Molecule | Thermal decomposition (5% weight reduction) temperature [1] | Thermal decomposition (5% weight reduction) temperature [1, 4] | Solubility to fluorine-based solvent ([2]; Novec 7100, 1% by mass) | Solubility to fluorine-based solvent ([2]; Novec 7200, 1% by mass) | Solubility to fluorine-based solvent ([2]; Novec 7300, 1% by mass) | Solubility to fluorine-based solvent ([2]; Vertrel XF, 1% by mass) | Thermal stability and friction coefficient (in words) [3]
1 | NCCC(F)(F)C(F)(F)C(F)(F)C(F)(F)C(F)(F)C(F)(F)C(F)(F)C(F)(F)F.O=S(=O)(O)CCCOCC(F)(F)OC(F)(F)C(F)(F)OC(F)(F)C(F)(F)OC(F)(F)C(F)(F)C(F)(F)C(F)(F)F [Ex. 2, 1H,1H,2H,2H-perfluorodecylamine-PFTEG sulfonic acid salt] | 254 °C | – | – | – | – | – | –
2 | NCCC(F)(F)C(F)(F)C(F)(F)C(F)(F)C(F)(F)C(F)(F)C(F)(F)C(F)(F)F.O=S(=O)(O)C(F)(F)C(F)(F)C(F)(F)C(F)(F)F [compound 2, 1H,1H,2H,2H-perfluorodecylamine-perfluorobutane sulfonic acid salt, reference compound] | – | 308 °C | 2 | 2 | 2 | 2 | –
3 | NCCC(F)(F)C(F)(F)C(F)(F)C(F)(F)C(F)(F)C(F)(F)C(F)(F)C(F)(F)F.O=C(O)C(F)(F)OC(F)(F)C(F)(F)OC(F)(F)C(F)(F)OC(F)(F)C(F)(F)C(F)(F)C(F)(F)F [Ex. 4, 1H,1H,2H,2H-perfluorodecylamine-perfluoro-3,6,9-trioxatridecanoic acid salt] | – | 169 °C | 1 | 1 | 1 | 1 | –
4 | octadecylamine-perfluoroheptanoic Acid Salt [compound 3, reference compound] | – | 204 °C | 2 | 2 | 2 | 2 | –
5 | octylamine-PFTEG sulfonic Acid Salt [Comp. Ex. 1, reference compound] | – | 276 °C | – | – | – | – | –
6 | NCCOCC(F)(F)OC(F)(F)C(F)(F)OC(F)(F)C(F)(F)OC(F)(F)C(F)(F)C(F)(F)C(F)(F)F.O=S(=O)(O)CCCOCC(F)(F)OC(F)(F)C(F)(F)OC(F)(F)C(F)(F)OC(F)(F)C(F)(F)C(F)(F)C(F)(F)F [Ex. 1, PFTEG amine-PFTEG sulfonic acid salt] | – | 246 °C | 1 | 1 | 1 | 1 | –
7 | NCCOCC(F)(F)OC(F)(F)C(F)(F)OC(F)(F)C(F)(F)OC(F)(F)C(F)(F)C(F)(F)C(F)(F)F.O=S(=O)(NS(=O)(=O)C(F)(F)C(F)(F)C(F)(F)C(F)(F)F)C(F)(F)C(F)(F)C(F)(F)C(F)(F)F [Ex. 5, PFTEG amine-bis(perfluorobutanesulfonyl)imide salt] | – | 291 °C | 1 | 1 | 1 | 1 | –
8 | NCCOCC(F)(F)OC(F)(F)C(F)(F)OC(F)(F)C(F)(F)OC(F)(F)C(F)(F)C(F)(F)C(F)(F)F.O=S(=O)(O)C(F)(F)C(F)(F)C(F)(F)C(F)(F)F [Ex. 3, PFTEG amine-perfluorobutane sulfonic acid salt] | – | 302 °C | 1 | 1 | 1 | 1 | more excellent
